Here are results for 12 compounds from ChEMBL document CHEMBL2311481, “Synthesis, characterization and antimalarial activity of quinoline-pyrimidine hybrids” (Bioorg Med Chem, 2013).

≈ marks a conversion by molar mass, not a printed value.

A short description of series [1]: Solubility in octanol at pH 5.5. Type of series: physicochemical. To be noted: buffer.
Series [2] can be described thus: Solubility in octanol at pH 7.4. Type of series: physicochemical.
Series [3] has as its system Plasmodium falciparum. The experiment in a line: Resistance index, ratio of IC50 for chloroquine-resistant Plasmodium falciparum Dd2 to IC50 for chloroquine-susceptible Plasmodium falciparum D10. Type of series: functional.
Another series deals with CHO. The experiment in a line: Cytotoxicity against CHO cells after 48 hrs by MTT assay. In kind it is cell-based. To be noted: Cricetulus griseus. A general note: Formazan colour is commonly taken as a measure of viable cells.
A short description of series [4]: Partition coefficient, log D of the compound using n-octanol/PBS buffer system at pH 7.4 by HPLC method. In kind it is physicochemical.
Series [5] has as its system Plasmodium falciparum. The experiment in a line: microbe, parasite or virus in culture. To be noted: D10, 48 h.
Series [6] can be described thus: Aqueous solubility in pH 5.5 PBS buffer at 37 degC incubated for 24 hrs by HPLC method. Type of series: physicochemical. To be noted: pH 5.5, 24 h.
A short description of series [7]: Aqueous solubility in pH 7.4 PBS buffer at 37 degC incubated for 24 hrs by HPLC method. Type of series: physicochemical. To be noted: pH 7.4, 24 h.
Series [8] deals with Plasmodium falciparum. The series can be described thus: Antimalarial activity against chloroquine-resistant Plasmodium falciparum Dd2 asexual erythrocyte forms after 48 hrs by parasite LDH assay. Type of series: functional, organism-based. To be noted: Dd2, 48 h.
Series [9] is described as follows: Selectivity index, ratio of IC50 for CHO cells to IC50 for chloroquine-susceptible Plasmodium falciparum D10. In kind it is toxicity, cell-based. To be noted: hamster, read-out: Ratio IC50.
Series [10] in a line: Partition coefficient, log D of the compound using n-octanol/PBS buffer system at pH 5.5 by HPLC method. In kind it is physicochemical.
A short description of series [11]: Dissociation constant, pKa of the compound at pH 7.4.
[12] abbreviates: n-octanol/PBS buffer, read-out: logD.

A word on the solubility: it is the dissolved amount per volume that the medium holds. What is called IC50 is the point on the concentration scale where inhibition reaches its midpoint. A high value points to weaker potency. In general, logD refers to lipophilicity at a set pH, counting ionised and neutral species. On to `Nc1cc(NCCNc2ccnc3cc(Cl)ccc23)nc(N)n1`, for which the solubility in series [1] amounted to 0.45 µM (≈ 0.148 µg/mL); in series [2], 0.72 µM (≈ 0.237 µg/mL); in [6] it was 0.52 µM (≈ 0.171 µg/mL); in series [7] it was 0.12 µM (≈ 0.0396 µg/mL). Moreover, in the series with Plasmodium falciparum [3], the “Ratio IC50” value was 3.2. The IC50 in the series on CHO turned out to be 190000 nM; in the series on Plasmodium falciparum [5] it was 317 nM; in the series with Plasmodium falciparum [8], 1020 nM. Moreover, the logD is 0.78 in series [4] (setting [12]) and -0.07 in series [10] (setting [12]). The selectivity ratio in series [9] is 607.
Turning to `Nc1cc(NCCCCNc2ccnc3cc(Cl)ccc23)nc(N)n1`, the solubility in [1] was determined as 0.19 µM (≈ 0.068 µg/mL); in [2], 2.91 µM (≈ 1.04 µg/mL); in series [6], 1.04 µM (≈ 0.372 µg/mL); in series [7], 0.94 µM (≈ 0.336 µg/mL). In addition, the “Ratio IC50” value in the series with Plasmodium falciparum [3] is reported as 2.2. Besides, the IC50 in the series with CHO was 162000 nM; with Plasmodium falciparum [5] it was 580 nM; with Plasmodium falciparum [8], 1260 nM. In addition, the log distribution coefficient (logD) in [4] (setting [12]) was 0.49; in [10] (setting [12]), -0.74. Moreover, in [9], the selectivity ratio is 280.
Turning to `Nc1cc(NCCCNc2ccnc3cc(Cl)ccc23)nc(N)n1`, the solubility in series [1] stood at 0.16 µM (≈ 0.055 µg/mL); in series [2], 0.79 µM (≈ 0.272 µg/mL); in [6] it was 0.88 µM (≈ 0.303 µg/mL); in [7] it was 0.62 µM (≈ 0.213 µg/mL). For the same compound, the “Ratio IC50” value in the series with Plasmodium falciparum [3] came to 1.4. In addition, the IC50 in the series with CHO was 255000 nM; in the series on Plasmodium falciparum [5], 850 nM; in the series with Plasmodium falciparum [8], 1210 nM. For the same compound, the logD in series [4] (setting [12]) is 0.11; in [10] (setting [12]), -0.74. In series [9], the selectivity ratio was 308.
Consider `Nc1cc(Nc2ccc(Nc3ccnc4cc(Cl)ccc34)cc2)nc(N)n1`, for which, in the series on Plasmodium falciparum [3], the “Ratio IC50” value is listed as 0.5. The IC50 in the series with CHO was determined as 13800 nM; with Plasmodium falciparum [5], 220 nM; with Plasmodium falciparum [8], 107 nM. Also, the logD result in series [4] (octanol/water) and in series [10] (octanol/water) was “ND(Insoluble)” in each case. For the same compound, the solubility in series [6] was 0.01 µM (≈ 0.00378 µg/mL); in series [7], “ND(Insoluble)”. Further, in [9], the selectivity ratio came out at 63.
With `Nc1cc(N2CCN(c3ccnc4cc(Cl)ccc34)CC2)nc(N)n1`, the solubility in series [1] is 0.07 µM (≈ 0.0249 µg/mL); in series [6], 0.66 µM (≈ 0.235 µg/mL); in [7], 0.01 µM (≈ 0.00356 µg/mL). For the same compound, the “Ratio IC50” value with Plasmodium falciparum [3] worked out at 2.4. The IC50 stood at 146000 nM in the series on CHO, 70 nM in the series with Plasmodium falciparum [5] and 157 nM in the series with Plasmodium falciparum [8]. Further, the logD result in series [4] (octanol/water) is “ND(Insoluble)”; in series [10] (setting [12]), -0.99. The selectivity ratio in [9] was determined as 2070.
Regarding `Nc1cc(OCCOCCNc2ccnc3cc(Cl)ccc23)nc(N)n1`, the solubility in series [1] worked out at 0.6 µM (≈ 0.225 µg/mL); in [2], 0.44 µM (≈ 0.165 µg/mL); in series [6], 1.17 µM (≈ 0.439 µg/mL); in series [7], 0.84 µM (≈ 0.315 µg/mL). In addition, in the series with Plasmodium falciparum [3], the “Ratio IC50” value is recorded as 5. Also, the concentration for half-maximal inhibition (IC50) with CHO was 250000 nM; in the series with Plasmodium falciparum [5] it was 837 nM; in the series on Plasmodium falciparum [8], 4100 nM. Also, the logD was -0.28 in [4] (setting [12]) and -0.29 in series [10] (setting [12]). Also, the selectivity ratio in series [9] turned out to be 303.
As for `CC[C@H]1CN2CCc3cc(OC)c(OC)cc3[C@@H]2C[C@@H]1C[C@H]1NCCc2cc(OC)c(OC)cc21` [EMETINE], the IC50 in the series on CHO was found to be 125000 nM.
As for `Nc1cc(OCCCNc2ccnc3cc(Cl)ccc23)nc(N)n1`, the solubility in series [1] was determined as 0.25 µM (≈ 0.0862 µg/mL); in [2], 1.2 µM (≈ 0.414 µg/mL); in [6], 0.31 µM (≈ 0.107 µg/mL); in series [7], 0.12 µM (≈ 0.0414 µg/mL). Moreover, in the series on Plasmodium falciparum [3], the “Ratio IC50” value is listed as 2.2. Moreover, the values for the IC50 with CHO, with Plasmodium falciparum [5] and in the series on Plasmodium falciparum [8] were 107000 nM, 217 nM and 467 nM, respectively. For the same compound, the logD is 1.01 in [4] (setting [12]) and -0.08 in [10] (setting [12]). In addition, in [9], the selectivity ratio is 494.
For `CC(COc1cc(N)nc(N)n1)Nc1ccnc2cc(Cl)ccc12` (stereo unspecified), the solubility in [1] was determined as 0.07 µM (≈ 0.0241 µg/mL); in series [2], 2.14 µM (≈ 0.738 µg/mL); in series [6] it was 1.45 µM (≈ 0.5 µg/mL); in series [7], 0.25 µM (≈ 0.0862 µg/mL). Further, the “Ratio IC50” value with Plasmodium falciparum [3] amounted to 2.3. For the same compound, the IC50 with CHO was found to be 250000 nM; in the series on Plasmodium falciparum [5] it was 243 nM; in the series on Plasmodium falciparum [8] it was 543 nM. Besides, the logD in series [4] (setting [12]) is 0.92; in series [10] (setting [12]) it was -1.34. Also, the selectivity ratio in [9] was determined as 1030.
In general, pKa refers to the negative logarithm of the acid dissociation constant. Take `CCc1nc(N)nc(N)c1-c1ccc(Cl)cc1` [PYRIMETHAMINE]: the solubility in series [1] came to 6.67 µM (≈ 1.66 µg/mL); in [2], 12.8 µM (≈ 3.19 µg/mL); in [6], 1.16 µM (≈ 0.289 µg/mL); in series [7], 0.15 µM (≈ 0.0373 µg/mL). The same compound had a pKa in [11] of 7.36. Further, the logD was determined as 1.93 in series [4] (setting [12]) and 0.76 in series [10] (setting [12]). The compound further displayed an IC50 in the series with Plasmodium falciparum [5] of 70 nM.
Take `CCC(COc1cc(N)nc(N)n1)Nc1ccnc2cc(Cl)ccc12` (stereo unspecified): the solubility in [1] turned out to be 0.49 µM (≈ 0.176 µg/mL); in series [2], 5.68 µM (≈ 2.04 µg/mL); in series [6], 0.04 µM (≈ 0.0144 µg/mL); in series [7], 0.02 µM (≈ 0.00718 µg/mL). Besides, the “Ratio IC50” value in the series with Plasmodium falciparum [3] was found to be 1.4. For the same compound, the results for the IC50 with CHO, with Plasmodium falciparum [5] and with Plasmodium falciparum [8] were 156000 nM, 157 nM and 210 nM, respectively. Further, the logD was 2.47 in [4] (setting [12]) and 1.07 in series [10] (setting [12]). Moreover, in series [9], the selectivity ratio was 995.
Regarding `Nc1cc(OCCNc2ccnc3cc(Cl)ccc23)nc(N)n1`, the solubility in series [1] came to 0.15 µM (≈ 0.0496 µg/mL); in [2], 1.84 µM (≈ 0.609 µg/mL); in [6] it was 0.3 µM (≈ 0.0992 µg/mL); in series [7], 0.23 µM (≈ 0.0761 µg/mL). Further, the “Ratio IC50” value with Plasmodium falciparum [3] is 2.6. In addition, the results for the concentration for half-maximal inhibition (IC50) in the series on CHO, with Plasmodium falciparum [5] and in the series on Plasmodium falciparum [8] were 174000 nM, 230 nM and 580 nM, respectively. The logD in series [4] (setting [12]) was 0.9; in [10] (setting [12]), -0.3. In addition, in series [9], the selectivity ratio came to 764.
